Legend:
[1] = molecular target: T1, human vitronectin receptor αvβ3 (Homo sapiens, UniProt P05106+P06756); experiment: Inhibition of the binding of kistrin to human vitronectin receptor (αvβ3 ELISA Test, K/VnR)
T1 construct: Human vitronectin receptor was obtained from the human placenta; from tissue; host or cells: human placenta
Excerpt: The inhibition of the binding of kistrin to human vitronectin receptor (VnR) described below is a test method by which, for example, the antagonistic action of the compounds according to the invention on the vitronectin receptor αvβ3 can be determined (αvβ3 ELISA Test; the test method is abbreviated as “K/VnR” in the listing of the test results).
Kistrin was purified according to the methods of Dennis et al., as described in Proc. Natl. Acad. Sci. USA 87 (1989) 2471-2475 and PROTEINS: Structure, Function and Genetics 15 (1993) 312-321.
Human vitronectin receptor was obtained from the human placenta according to the method of Pytela et al., Methods Enzymol. 144 (1987) 475. Human vitronectin receptor αvβ3 can also be obtained from some cell lines (for example from 293 cells, a human embryonic kidney cell line) which are co-transfected with DNA sequences for both subunits αv and β3 of the vitronectin receptor. The subunits are extracted with octyl glycoside and then chromatographed through concanavalin A, heparin-Sepharose and S-300.
Murine monoclonal antibodies which are specific for the β3 subunits of the vitronectin receptor were prepared according to the method of Newman et al., Blood (1985) 227-232, or by a similar process. The rabbit Fab 2 anti-mouse Fc conjugate to horseradish peroxidase (anti-mouse Fc HRP) was obtained from Pel Freeze (Catalog No. 715 305-1).
The ability of substances to inhibit the binding of kistrin to the vitronectin receptor can be determined using an ELISA test. For this purpose, Nunc 96-well microtiter plates were coated with a solution of kistrin (0.002 mg/ml) according to the method of Dennis et al., as described in PROTEINS: Structure, Function and Genetics 15 (1993) 312-321. The plates were then washed twice with PBS/0.05% Tween-20 and blocked by incubating (60 min) with bovine serum albumin (BSA, 0.5%, RIA grade or better) in buffer solution (Tris-HCl (50 mM), NaCl (100 mM), MgCl2 (1 mM), CaCl2 (1 mM), MnCl2 (1 mM), pH 7). Solutions of known inhibitors and of the test substances were prepared in concentrations from 2×10^−12 to 2×10^−6 mol/l in assay buffer (BSA (0.5%, RIA grade or better); Tris-HCl (50 mM), NaCl (100 mM), MgCl2 (1 mM), CaCl2 (1 mM), MnCl2 (1 mM), pH 7). The blocked plates were emptied, and in each case 0.025 ml of this solution which contained a defined concentration (2×10^−12 to 2×10^−6 mol/l ) either of a known inhibitor or of a test substance, were added to each well. 0.025 ml of a solution of the vitronectin receptor in assay buffer (0.03 mg/ml) was pipetted into each well of the plate and the plate was incubated at room temperature for 60-180 min on a shaker. In the meantime, a solution (6 ml/plate) of a murine monoclonal antibody specific for the β3 subunit of the vitronectin receptor was prepared in assay buffer (0.0015 mg/ml). A second rabbit antibody (0.001 ml of stock solution/6 ml of the murine monoclonal anti-β3 antibody solution) which was an anti-mouse Fc HRP antibody conjugate was added to this solution, and this mixture of murine anti-β3 antibody and rabbit anti-mouse Fc HRP antibody conjugate was incubated during the time of the receptor-inhibitor incubation. The test plates were washed four times with PBS solution which contained 0.05% Tween-20, and in each case 0.05 ml/well of the antibody mixture was pipetted into each well of the plate and incubated for 60-180 min. The plate was washed four times with PBS/0.05% Tween-20 and then developed with 0.05 ml/well of a PBS solution which contained 0.67 mg/ml of o-phenylenediamine and 0.012% of H2O2. Alternatively to this, o-phenylenediamine can be employed in a buffer (pH 5) which contains Na3PO4 and citric acid. The color development was stopped using 1 N H2SO4 (0.05 ml/well). The absorption for each well was measured at 492-405 nm and the data were evaluated by standard methods.

GP IIb/IIIa = GP IIb/IIIa (Homo sapiens, UniProt P05106+P08514); experiment: Fibrinogen-GP IIbIIIa Receptor ELISA Binding Assay (GP IIb/IIIa); conditions: read-out: GP IIb/IIla IC50
GP IIb/IIIa, sequence (P08514 32-887 limits assumed): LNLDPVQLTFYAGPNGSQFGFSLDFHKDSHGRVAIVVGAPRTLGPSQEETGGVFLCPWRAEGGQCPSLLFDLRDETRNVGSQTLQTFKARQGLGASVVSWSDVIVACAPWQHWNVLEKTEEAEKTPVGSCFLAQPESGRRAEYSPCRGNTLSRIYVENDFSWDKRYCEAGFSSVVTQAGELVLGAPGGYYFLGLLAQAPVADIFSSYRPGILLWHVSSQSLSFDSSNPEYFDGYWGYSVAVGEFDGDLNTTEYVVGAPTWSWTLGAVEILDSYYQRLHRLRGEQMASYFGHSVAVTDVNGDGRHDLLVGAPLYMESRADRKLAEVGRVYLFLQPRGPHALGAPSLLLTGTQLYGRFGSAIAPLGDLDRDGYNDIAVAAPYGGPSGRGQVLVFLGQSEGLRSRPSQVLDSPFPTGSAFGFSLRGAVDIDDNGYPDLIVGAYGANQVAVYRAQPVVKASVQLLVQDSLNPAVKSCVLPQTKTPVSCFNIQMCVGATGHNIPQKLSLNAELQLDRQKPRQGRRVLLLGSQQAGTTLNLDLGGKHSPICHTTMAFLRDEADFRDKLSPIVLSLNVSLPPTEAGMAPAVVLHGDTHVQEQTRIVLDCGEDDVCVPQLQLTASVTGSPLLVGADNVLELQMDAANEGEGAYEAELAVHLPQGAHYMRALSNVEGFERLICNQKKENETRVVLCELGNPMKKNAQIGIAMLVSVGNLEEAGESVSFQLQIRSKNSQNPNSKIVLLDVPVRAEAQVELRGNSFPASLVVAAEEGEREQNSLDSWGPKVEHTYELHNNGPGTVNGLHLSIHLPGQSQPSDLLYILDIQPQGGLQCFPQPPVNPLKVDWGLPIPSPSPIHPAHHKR
GP IIb/IIIa, sequence (P08514 891-1039 partner limits assumed): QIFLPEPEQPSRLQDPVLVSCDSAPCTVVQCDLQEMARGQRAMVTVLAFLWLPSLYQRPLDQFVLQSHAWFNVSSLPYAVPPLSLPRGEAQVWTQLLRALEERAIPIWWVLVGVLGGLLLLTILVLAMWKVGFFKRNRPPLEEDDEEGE
GP IIb/IIIa, sequence (P05106 27-788): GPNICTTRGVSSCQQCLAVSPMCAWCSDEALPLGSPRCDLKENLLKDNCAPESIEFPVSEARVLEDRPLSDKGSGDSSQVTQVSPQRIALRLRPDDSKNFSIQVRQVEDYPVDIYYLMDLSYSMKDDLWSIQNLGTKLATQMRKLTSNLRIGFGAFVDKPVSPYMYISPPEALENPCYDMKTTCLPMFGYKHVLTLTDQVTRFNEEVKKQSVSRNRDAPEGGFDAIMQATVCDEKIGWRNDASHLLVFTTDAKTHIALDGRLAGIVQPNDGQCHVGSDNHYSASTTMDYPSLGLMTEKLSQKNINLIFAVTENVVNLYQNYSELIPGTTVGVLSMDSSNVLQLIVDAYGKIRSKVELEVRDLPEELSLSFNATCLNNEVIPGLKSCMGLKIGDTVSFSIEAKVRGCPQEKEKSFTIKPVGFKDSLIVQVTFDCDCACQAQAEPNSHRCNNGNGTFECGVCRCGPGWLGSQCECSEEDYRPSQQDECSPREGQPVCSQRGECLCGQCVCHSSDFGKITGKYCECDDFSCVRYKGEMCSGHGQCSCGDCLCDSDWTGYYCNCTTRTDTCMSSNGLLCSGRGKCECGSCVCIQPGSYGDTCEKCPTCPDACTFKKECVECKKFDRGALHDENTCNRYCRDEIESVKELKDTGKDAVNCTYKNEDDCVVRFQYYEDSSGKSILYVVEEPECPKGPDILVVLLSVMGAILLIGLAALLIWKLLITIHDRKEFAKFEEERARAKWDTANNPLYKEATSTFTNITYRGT
Experimental: The test for inhibition of GP IIb/IIIa (“Fibrinogen-GP IIbIIIa Receptor ELISA Binding Assay”) was carried out as described in U.S. Pat. No. 5,403,836 which is incorporated herein by reference (the test method is abbreviated as “GP IIb/IIa” in the listing of the test results).

T1 sequence (P06756 31-889 limits assumed): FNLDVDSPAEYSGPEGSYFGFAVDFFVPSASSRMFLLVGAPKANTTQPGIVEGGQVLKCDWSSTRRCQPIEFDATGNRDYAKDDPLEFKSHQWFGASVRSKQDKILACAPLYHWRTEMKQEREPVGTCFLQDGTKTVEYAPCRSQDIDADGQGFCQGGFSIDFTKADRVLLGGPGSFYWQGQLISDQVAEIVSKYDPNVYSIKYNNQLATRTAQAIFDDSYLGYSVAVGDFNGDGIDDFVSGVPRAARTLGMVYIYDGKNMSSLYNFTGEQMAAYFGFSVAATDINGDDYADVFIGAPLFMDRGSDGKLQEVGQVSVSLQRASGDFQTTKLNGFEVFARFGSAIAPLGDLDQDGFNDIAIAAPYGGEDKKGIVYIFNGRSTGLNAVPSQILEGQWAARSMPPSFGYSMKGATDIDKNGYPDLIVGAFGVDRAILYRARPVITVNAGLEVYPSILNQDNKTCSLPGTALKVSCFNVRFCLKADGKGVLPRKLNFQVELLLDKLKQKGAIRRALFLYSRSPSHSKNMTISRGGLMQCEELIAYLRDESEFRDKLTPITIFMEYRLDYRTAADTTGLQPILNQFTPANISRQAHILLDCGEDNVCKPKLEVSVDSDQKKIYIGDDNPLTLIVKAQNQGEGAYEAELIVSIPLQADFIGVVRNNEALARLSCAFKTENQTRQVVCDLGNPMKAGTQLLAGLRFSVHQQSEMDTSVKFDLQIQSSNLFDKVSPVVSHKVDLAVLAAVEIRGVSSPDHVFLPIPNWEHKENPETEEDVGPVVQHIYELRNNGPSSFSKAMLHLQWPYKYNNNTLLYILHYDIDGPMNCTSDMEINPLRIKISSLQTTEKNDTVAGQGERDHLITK
T1 sequence (P06756 891-1048 partner limits assumed): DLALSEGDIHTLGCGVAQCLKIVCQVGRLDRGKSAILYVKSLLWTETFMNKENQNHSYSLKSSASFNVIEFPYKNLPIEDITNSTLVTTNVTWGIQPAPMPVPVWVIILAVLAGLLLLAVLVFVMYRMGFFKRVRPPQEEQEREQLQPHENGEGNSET
T1 sequence (P05106 27-788): as the sequence (P05106 27-788) above

Structure (SMILES) | IC50 [1] [nM] | IC50 (GP IIb/IIIa) [nM]
CCCCCCCCS(=O)(=O)N[C@@H](Cc1ccc(OCCCC(=O)NC2=NCCCN2)cc1)C(=O)O [Example 10, (2S)-2-(Octane-1-sulfonylamino)-3-{4-[3-(1,4,5,6-tetrahydropyrimidin-2-ylcarbamoyl)-propoxy]-phenyl}-propionic acid] | 7.6 | 2400
Cc1ccc(S(=O)(=O)N[C@@H](Cc2ccc(OCCCC(=O)NC3=NCCCN3)cc2)C(=O)O)cc1 [Example 6, (2S)-3-{4-[3-(1,4,5,6-Tetrahydropyrimidin-2-ylcarbamoyl)-propoxy]-phenyl}-2-(toluene4-sulfonylamino)-propionic acid] | 2.8 | 720
O=C(CCCOc1ccc(C[C@H](NS(=O)(=O)c2cccc3ccccc23)C(=O)O)cc1)NC1=NCCCN1 [Example 2, (2S)-2-(Naphthalene-1-sulfonylamino)-3-{4-[3-(1,4,5,6-tetrahydropyrimidin-2-ylcarbamoyl)-propoxy]-phenyl}-propionic acid] | 2.7 | 525
O=C(CCCOc1ccc(C[C@H](NS(=O)(=O)c2ccccc2)C(=O)O)cc1)NC1=NCCCN1 [Example 4, (2S)-2-Benzenesulfonylamino-3-{4-[3-(1,4,5,6-tetrahydropyrimidin-2-ylcarbamoyl)-propoxy]-phenyl}-propionic acid] | 2.8 | 410
O=C(CCCOc1ccc(C[C@H](NS(=O)(=O)c2ccc(Br)cc2)C(=O)O)cc1)NC1=NCCCN1 [Example 7, (2S)-2-(4-Bromobenzenesulfonylamino)-3-{4-[3-(1,4,5,6-tetrahydropyrimidin-2-ylcarbamoyl)-propoxy]-phenyl}-propionic acid] | 3.5 | 950
O=C(CCCOc1ccc(C[C@H](NS(=O)(=O)c2ccc(C(F)(F)F)cc2)C(=O)O)cc1)NC1=NCCCN1 [Example 5, (2S)-3-{4-[3-(1,4,5,6-Tetrahydropyrimidin-2-ylcarbamoyl)-propoxy]-phenyl}-2-(4-trifluoromethylbenzenesulfonylamino)-propionic acid] | 3.5 | 3150
O=C(CCCOc1ccc(C[C@H](NS(=O)(=O)c2ccc3ccccc3c2)C(=O)O)cc1)NC1=NCCCN1 [Example 1, (2S)-2-(Naphthalene-2-sulfonylamino)-3-{4-[3-(1,4,5,6-tetrahydropyrimidin-2-ylcarbamoyl)-propoxy]-phenyl}-propionic acid] | 7.5 | 260
O=C(CCCOc1ccc(C[C@H](NS(=O)(=O)c2cccs2)C(=O)O)cc1)NC1=NCCCN1 [Example 8, (2S)-3-{4-[3-(1,4,5,6-Tetrahydropyrimidin-2-ylcarbamoyl)-propoxy]-phenyl}-2-(thiophene-2-sulfonylamino)-propionic acid] | 2.5 | 330
O=C(CCCOc1ccc(C[C@H](NS(=O)(=O)c2ccc(Cl)cc2)C(=O)O)cc1)NC1=NCCCN1 [Example 3, (2S)-2-(4-Chlorobenzenesulfonylamino)-3-{4-[3-(1,4,5,6-tetrahydropyrimidin-2-ylcarbamoyl)-propoxy]-phenyl}-propionic acid] | 3 | 765
CCCCS(=O)(=O)N[C@@H](Cc1ccc(OCCCC(=O)NC2=NCCCN2)cc1)C(=O)O [Example 9, (2S)-2-(Butane-1-sulfonylamino)-3-{4-[3-(1,4,5,6-tetrahydropyrimidin-2-ylcarbamoyl)-propoxy]-phenyl}-propionic acid] | 5.3 | 2100
